# Reference: PubChem BioAssay AID2060900 (Molecular Pharmacology Branch, DTP, NCI, 2025)
# System: 521955-158-R2-J5-PDC complex spheroids, viability
# Test: Anticancer human tumor 521955-158-R2-J5-PDC patient-derived pancreatic carcinoma cell line growth inhibition [RAS]
# Conditions: for IC50: curve of first compound; for viability, T/C: stronger effect = lower value
# Method in brief: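 Tumour cells grown as complex spheroids with HUVEC endothelial cells and mesenchymal stem cells, treated with RAS pathway inhibitor combinations. Each agent spans half-log steps from near clinical Cmax, or 10 microM where Cmax is unknown.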
# 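Also: compound exposure lasted seven days before the viability read.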
# 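For viability, T/C in this document: spheroids also contain HUVEC endothelial cells and mesenchymal stem cells as stroma.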
smiles,measurement,setting,value
C=CC(=O)N1CCN(c2nc(OCC3CCCN3C)nc3c(F)c(-c4nc(N)cc(C)c4C(F)(F)F)c(Cl)cc23)C(C)C1 (centres undefined) + CCn1c(-c2cc(N3CCN(C)CC3)cnc2C(C)OC)c2c3cc(ccc31)-c1csc(n1)CC(NC(=O)C1CC1C)C(=O)N1CCCC(N1)C(=O)OCC(C)(C)C2,IC50,second compound 0.000949 µM,< 3.16 nM
same,IC50,second compound 0.003 µM,< 3.16 nM
same,IC50,second compound 0.00949 µM,< 3.16 nM
same,IC50,second compound 0.03 µM,< 3.16 nM
same,IC50,second compound 0.0949 µM,< 3.16 nM
same,IC50,second compound 0.3 µM,< 3.16 nM
same,"viability, T/C","second compound 0.000949 µM, first compound 0.00316 µM",42.5%
same,"viability, T/C","second compound 0.000949 µM, first compound 0.01 µM",43.1%
same,"viability, T/C","second compound 0.000949 µM, first compound 0.0316 µM",45.9%
same,"viability, T/C","second compound 0.000949 µM, first compound 0.1 µM",45.9%
same,"viability, T/C","second compound 0.000949 µM, first compound 0.316 µM",57.7%
same,"viability, T/C","second compound 0.000949 µM, first compound 1 µM",41%
same,"viability, T/C","second compound 0.003 µM, first compound 0.00316 µM",39.4%
same,"viability, T/C","second compound 0.003 µM, first compound 0.01 µM",36.5%
same,"viability, T/C","second compound 0.003 µM, first compound 0.0316 µM",46.7%
same,"viability, T/C","second compound 0.003 µM, first compound 0.1 µM",49.3%
same,"viability, T/C","second compound 0.003 µM, first compound 0.316 µM",39.9%
same,"viability, T/C","second compound 0.003 µM, first compound 1 µM",49.5%
same,"viability, T/C","second compound 0.00949 µM, first compound 0.00316 µM",35%
same,"viability, T/C","second compound 0.00949 µM, first compound 0.01 µM",35.4%
same,"viability, T/C","second compound 0.00949 µM, first compound 0.0316 µM",44.3%
same,"viability, T/C","second compound 0.00949 µM, first compound 0.1 µM",29.6%
same,"viability, T/C","second compound 0.00949 µM, first compound 0.316 µM",42%
same,"viability, T/C","second compound 0.00949 µM, first compound 1 µM",36.1%
same,"viability, T/C","second compound 0.03 µM, first compound 0.00316 µM",17.1%
same,"viability, T/C","second compound 0.03 µM, first compound 0.01 µM",19%
same,"viability, T/C","second compound 0.03 µM, first compound 0.0316 µM",22.6%
same,"viability, T/C","second compound 0.03 µM, first compound 0.1 µM",20.2%
same,"viability, T/C","second compound 0.03 µM, first compound 0.316 µM",30.7%
same,"viability, T/C","second compound 0.03 µM, first compound 1 µM",18.6%
same,"viability, T/C","second compound 0.0949 µM, first compound 0.00316 µM",16.1%
same,"viability, T/C","second compound 0.0949 µM, first compound 0.01 µM",11.4%
same,"viability, T/C","second compound 0.0949 µM, first compound 0.0316 µM",11.9%
same,"viability, T/C","second compound 0.0949 µM, first compound 0.1 µM",13.9%
same,"viability, T/C","second compound 0.0949 µM, first compound 0.316 µM",15.1%
same,"viability, T/C","second compound 0.0949 µM, first compound 1 µM",11.9%
same,"viability, T/C","second compound 0.3 µM, first compound 0.00316 µM",10.8%
same,"viability, T/C","second compound 0.3 µM, first compound 0.01 µM",10.2%
same,"viability, T/C","second compound 0.3 µM, first compound 0.0316 µM",11.3%
same,"viability, T/C","second compound 0.3 µM, first compound 0.1 µM",12.5%
same,"viability, T/C","second compound 0.3 µM, first compound 0.316 µM",15.9%
same,"viability, T/C","second compound 0.3 µM, first compound 1 µM",9.71%
CC(Nc1ccc2c(c1)OCCn1cc(N3C(=O)OCC3C(F)F)nc1-2)C(N)=O (centres undefined) + C=CC(=O)N1CCN(c2nc(OCC3CCCN3C)nc3c(F)c(-c4nc(N)cc(C)c4C(F)(F)F)c(Cl)cc23)C(C)C1,IC50,second compound 0.00316 µM,1320 nM
same,IC50,second compound 0.01 µM,419 nM
same,IC50,second compound 0.0316 µM,634 nM
same,IC50,second compound 0.1 µM,833 nM
same,IC50,second compound 0.316 µM,261 nM
same,IC50,second compound 1 µM,180 nM
same,"viability, T/C","second compound 0.00316 µM, first compound 0.0316 µM",66.7%
same,"viability, T/C","second compound 0.00316 µM, first compound 0.1 µM",70.9%
same,"viability, T/C","second compound 0.00316 µM, first compound 0.316 µM",43%
same,"viability, T/C","second compound 0.00316 µM, first compound 1 µM",64.7%
same,"viability, T/C","second compound 0.00316 µM, first compound 3.16 µM",38.4%
same,"viability, T/C","second compound 0.00316 µM, first compound 10 µM",19.8%
same,"viability, T/C","second compound 0.01 µM, first compound 0.0316 µM",64.1%
same,"viability, T/C","second compound 0.01 µM, first compound 0.1 µM",58.3%
same,"viability, T/C","second compound 0.01 µM, first compound 0.316 µM",43.5%
same,"viability, T/C","second compound 0.01 µM, first compound 1 µM",52%
same,"viability, T/C","second compound 0.01 µM, first compound 3.16 µM",35.5%
same,"viability, T/C","second compound 0.01 µM, first compound 10 µM",22.9%
same,"viability, T/C","second compound 0.0316 µM, first compound 0.0316 µM",56.9%
same,"viability, T/C","second compound 0.0316 µM, first compound 0.1 µM",71.3%
same,"viability, T/C","second compound 0.0316 µM, first compound 0.316 µM",43.5%
same,"viability, T/C","second compound 0.0316 µM, first compound 1 µM",53.3%
same,"viability, T/C","second compound 0.0316 µM, first compound 3.16 µM",30.4%
same,"viability, T/C","second compound 0.0316 µM, first compound 10 µM",19.7%
same,"viability, T/C","second compound 0.1 µM, first compound 0.0316 µM",67.3%
same,"viability, T/C","second compound 0.1 µM, first compound 0.1 µM",54.8%
same,"viability, T/C","second compound 0.1 µM, first compound 0.316 µM",67.6%
same,"viability, T/C","second compound 0.1 µM, first compound 1 µM",45.6%
same,"viability, T/C","second compound 0.1 µM, first compound 3.16 µM",28.8%
same,"viability, T/C","second compound 0.1 µM, first compound 10 µM",19.4%
same,"viability, T/C","second compound 0.316 µM, first compound 0.0316 µM",72.4%
same,"viability, T/C","second compound 0.316 µM, first compound 0.1 µM",90.1%
same,"viability, T/C","second compound 0.316 µM, first compound 0.316 µM",43.8%
same,"viability, T/C","second compound 0.316 µM, first compound 1 µM",42.7%
same,"viability, T/C","second compound 0.316 µM, first compound 3.16 µM",33.3%
same,"viability, T/C","second compound 0.316 µM, first compound 10 µM",22.5%
same,"viability, T/C","second compound 1 µM, first compound 0.0316 µM",124%
same,"viability, T/C","second compound 1 µM, first compound 0.1 µM",53.4%
same,"viability, T/C","second compound 1 µM, first compound 0.316 µM",48.9%
same,"viability, T/C","second compound 1 µM, first compound 1 µM",35.4%
same,"viability, T/C","second compound 1 µM, first compound 3.16 µM",33%
same,"viability, T/C","second compound 1 µM, first compound 10 µM",19.8%
